Test results reported in US20260042731A1, “(2,4-DICHLOROPHENOXY)ACETIC ACID ANALOGS” (CORTEVA AGRISCIENCE LLC, priority 2022, published 2026).
Read-outs that look alike come from different tables or passages of the source.

Experiments:
[1] = system: Amaranthus rudis (AMATA), tall water hemp; assay: Postemergence herbicide evaluation, growth of Amaranthus rudis (AMATA); assay type: in vivo; details: Amaranthus tuberculatus, post-emergence, read-out: Ave. AMATA
[2] = system: Ambrosia artemisiifolia (AMBEL), common ragweed; assay: Postemergence herbicide evaluation, growth of Ambrosia artemisiifolia (AMBEL); assay type: in vivo; details: Ambrosia artemisiifolia, post-emergence, read-out: AVE. AMBEL
[3] = system: Abutilon theophrasti (ABUTH), velvetleaf; assay: Postemergence herbicide evaluation, growth of Abutilon theophrasti (ABUTH); assay type: in vivo; details: Abutilon theophrasti, post-emergence, read-out: AVE. ABUTH
[4] = system: Chenopodium album (CHEAL), common lambsquarters; assay: Postemergence herbicide evaluation, growth of Chenopodium album (CHEAL); assay type: in vivo; details: Chenopodium album, post-emergence, read-out: Ave. CHEAL
[5] = system: glyphosate resistant Conyza canadensis (L.) (ERICA), horseweed; assay: Postemergence herbicide evaluation, growth of Conyza canadensis (ERICA); assay type: in vivo; details: Erigeron canadensis, post-emergence, read-out: Ave. ERICA
[6] = Volatility of compounds measured by thermogravimetric analysis (TGA); assay type: physicochemical
[7] = system: weeds (ABUTH, AMATA, AMBEL, CHEAL, ERICA); assay: Postemergence herbicide evaluation, overall average % weed control across ABUTH, AMATA, AMBEL, CHEAL, ERICA; assay type: in vivo; details: post-emergence, average over the five weeds, read-out: Overall Ave % Weed Control; for pest or weed control at 280 g/ha: 280 g ae/ha; for pest or weed control at 560 g/ha: 560 g ae/ha
[8] = 168 h, 280 g ae/ha, 7 DAA, percent reduction in plant size relative to untreated control
[9] = 168 h, 560 g ae/ha, 7 DAA, percent reduction in plant size relative to untreated control
[10] = 336 h, 280 g ae/ha, 14 DAA, percent reduction in plant size relative to untreated control
[11] = 336 h, 560 g ae/ha, 14 DAA, percent reduction in plant size relative to untreated control
[12] = 504 h, 280 g ae/ha, 21 DAA, percent reduction in plant size relative to untreated control
[13] = 504 h, 560 g ae/ha, 21 DAA, percent reduction in plant size relative to untreated control

O=C(COc1ccc(Cl)cc1Cl)ON(Cc1ccccc1)Cc1ccccc1 [Compound A14, N, N-Dibenzyl-O-(2-(2,4-dichlorophenoxy)acetyl)hydroxylamine]
pest or weed control at 280 g/ha [1, 8]: 63% | pest or weed control at 560 g/ha [1, 9]: 55% | pest or weed control at 280 g/ha [1, 10]: 50% | pest or weed control at 560 g/ha [1, 11]: 48% | pest or weed control at 280 g/ha [1, 12]: 53% | pest or weed control at 560 g/ha [1, 13]: 43% | pest or weed control at 280 g/ha [2, 8]: 50% | pest or weed control at 560 g/ha [2, 9]: 40% | pest or weed control at 280 g/ha [2, 10]: 63% | pest or weed control at 560 g/ha [2, 11]: 50% | pest or weed control at 280 g/ha [2, 12]: 58% | pest or weed control at 560 g/ha [2, 13]: 33% | pest or weed control at 280 g/ha [3, 8]: 38% | pest or weed control at 560 g/ha [3, 9]: 28% | pest or weed control at 280 g/ha [3, 10]: 23% | pest or weed control at 560 g/ha [3, 11]: 20% | pest or weed control at 280 g/ha [3, 12]: 13% | pest or weed control at 560 g/ha [3, 13]: 15% | pest or weed control at 280 g/ha [4, 8]: 60% | pest or weed control at 560 g/ha [4, 9]: 58% | pest or weed control at 280 g/ha [4, 10]: 68% | pest or weed control at 560 g/ha [4, 11]: 63% | pest or weed control at 280 g/ha [4, 12]: 70% | pest or weed control at 560 g/ha [4, 13]: 63% | pest or weed control at 280 g/ha [5, 8]: 43% | pest or weed control at 560 g/ha [5, 9]: 40% | pest or weed control at 280 g/ha [5, 10]: 50% | pest or weed control at 560 g/ha [5, 11]: 50% | pest or weed control at 280 g/ha [5, 12]: 43% | pest or weed control at 560 g/ha [5, 13]: 40% | TGA Data (rate of weight loss, volatility) ([6]; 70° C.): 0.4 (70° C.) μg/min | pest or weed control at 280 g/ha ([7]; 168 h, 7 DAA): 51% | pest or weed control at 560 g/ha ([7]; 168 h, 7 DAA): 44% | pest or weed control at 280 g/ha ([7]; 336 h, 14 DAA): 51% | pest or weed control at 560 g/ha ([7]; 336 h, 14 DAA): 46% | pest or weed control at 280 g/ha ([7]; 504 h, 21 DAA): 47% | pest or weed control at 560 g/ha ([7]; 504 h, 21 DAA): 39%

O=C(COc1ccc(Cl)cc1Cl)n1cnc2ccccc21 [Compound D4, 1-(1H-Benzo[d]imidazol-1-yl)-2-(2,4-dichlorophenoxy)ethanone]
pest or weed control at 280 g/ha ([1]; 168 h): 75% | pest or weed control at 560 g/ha ([1]; 168 h): 83% | pest or weed control at 280 g/ha ([1]; 336 h): 75% | pest or weed control at 560 g/ha ([1]; 336 h): 97% | pest or weed control at 280 g/ha ([1]; 504 h): 75% | pest or weed control at 560 g/ha ([1]; 504 h): 95% | pest or weed control at 280 g/ha ([2]; 168 h): 60% | pest or weed control at 560 g/ha ([2]; 168 h): 68% | pest or weed control at 280 g/ha ([2]; 336 h): 85% | pest or weed control at 560 g/ha ([2]; 336 h): 95% | pest or weed control at 280 g/ha ([2]; 504 h): 85% | pest or weed control at 560 g/ha ([2]; 504 h): 98% | pest or weed control at 280 g/ha ([3]; 168 h): 85% | pest or weed control at 560 g/ha ([3]; 168 h): 93% | pest or weed control at 280 g/ha ([3]; 336 h): 95% | pest or weed control at 560 g/ha ([3]; 336 h): 96% | pest or weed control at 280 g/ha ([3]; 504 h): 98% | pest or weed control at 560 g/ha ([3]; 504 h): 98% | pest or weed control at 280 g/ha ([4]; 168 h): 68% | pest or weed control at 560 g/ha ([4]; 168 h): 65% | pest or weed control at 280 g/ha ([4]; 336 h): 75% | pest or weed control at 560 g/ha ([4]; 336 h): 85% | pest or weed control at 280 g/ha ([4]; 504 h): 83% | pest or weed control at 560 g/ha ([4]; 504 h): 93% | pest or weed control at 280 g/ha ([5]; 168 h): 70% | pest or weed control at 560 g/ha ([5]; 168 h): 70% | pest or weed control at 280 g/ha ([5]; 336 h): 83% | pest or weed control at 560 g/ha ([5]; 336 h): 94% | pest or weed control at 280 g/ha ([5]; 504 h): 88% | pest or weed control at 560 g/ha ([5]; 504 h): 99% | TGA Data (rate of weight loss, volatility) [6]: 0.2 µg/min | pest or weed control at 280 g/ha ([7]; 168 h, 7 DAA): 72% | pest or weed control at 560 g/ha ([7]; 168 h, 7 DAA): 76% | pest or weed control at 280 g/ha ([7]; 336 h, 14 DAA): 83% | pest or weed control at 560 g/ha ([7]; 336 h, 14 DAA): 93% | pest or weed control at 280 g/ha ([7]; 504 h, 21 DAA): 86% | pest or weed control at 560 g/ha ([7]; 504 h, 21 DAA): 97%

C/C(N)=N/OC(=O)COc1ccc(Cl)cc1Cl [Compound A12, N′-(2-(2,4-Dichlorophenoxy)acetoxy)acetimidamide]
pest or weed control at 280 g/ha [1, 8]: 75% | pest or weed control at 560 g/ha [1, 9]: 78% | pest or weed control at 280 g/ha [1, 10]: 97% | pest or weed control at 560 g/ha [1, 11]: 83% | pest or weed control at 280 g/ha [1, 12]: 86% | pest or weed control at 560 g/ha [1, 13]: 88% | pest or weed control at 280 g/ha [2, 8]: 65% | pest or weed control at 560 g/ha [2, 9]: 75% | pest or weed control at 280 g/ha [2, 10]: 83% | pest or weed control at 560 g/ha [2, 11]: 96% | pest or weed control at 280 g/ha [2, 12]: 97% | pest or weed control at 560 g/ha [2, 13]: 99% | pest or weed control at 280 g/ha [3, 8]: 85% | pest or weed control at 560 g/ha [3, 9]: 93% | pest or weed control at 280 g/ha [3, 10]: 90% | pest or weed control at 560 g/ha [3, 11]: 97% | pest or weed control at 280 g/ha [3, 12]: 96% | pest or weed control at 560 g/ha [3, 13]: 99% | pest or weed control at 280 g/ha [4, 8]: 68% | pest or weed control at 560 g/ha [4, 9]: 68% | pest or weed control at 280 g/ha [4, 10]: 80% | pest or weed control at 560 g/ha [4, 11]: 78% | pest or weed control at 280 g/ha [4, 12]: 86% | pest or weed control at 560 g/ha [4, 13]: 80% | pest or weed control at 280 g/ha [5, 8]: 65% | pest or weed control at 560 g/ha [5, 9]: 68% | pest or weed control at 280 g/ha [5, 10]: 90% | pest or weed control at 560 g/ha [5, 11]: 91% | pest or weed control at 280 g/ha [5, 12]: 99% | pest or weed control at 560 g/ha [5, 13]: 97% | TGA Data (rate of weight loss, volatility) [6]: 5.8 µg/min | pest or weed control at 280 g/ha ([7]; 168 h, 7 DAA): 72% | pest or weed control at 560 g/ha ([7]; 168 h, 7 DAA): 76% | pest or weed control at 280 g/ha ([7]; 336 h, 14 DAA): 88% | pest or weed control at 560 g/ha ([7]; 336 h, 14 DAA): 89% | pest or weed control at 280 g/ha ([7]; 504 h, 21 DAA): 93% | pest or weed control at 560 g/ha ([7]; 504 h, 21 DAA): 92%
